# Laboratory results published in ChEMBL document CHEMBL1921768, “Identification of novel CYP2A6 inhibitors by virtual screening” (Bioorg Med Chem, 2011).
# Assays:
# Type in all cases: ADME, Microsome
# [1] = target: T1, Cytochrome P450 2A6 (Homo sapiens, UniProt P11509); experiment: Inhibition of CYP2A6 in human liver microsomes assessed as inhibition of coumarin 7-hydroxylation after 10 mins by plate reader
# T1 sequence (P11509 whole entry): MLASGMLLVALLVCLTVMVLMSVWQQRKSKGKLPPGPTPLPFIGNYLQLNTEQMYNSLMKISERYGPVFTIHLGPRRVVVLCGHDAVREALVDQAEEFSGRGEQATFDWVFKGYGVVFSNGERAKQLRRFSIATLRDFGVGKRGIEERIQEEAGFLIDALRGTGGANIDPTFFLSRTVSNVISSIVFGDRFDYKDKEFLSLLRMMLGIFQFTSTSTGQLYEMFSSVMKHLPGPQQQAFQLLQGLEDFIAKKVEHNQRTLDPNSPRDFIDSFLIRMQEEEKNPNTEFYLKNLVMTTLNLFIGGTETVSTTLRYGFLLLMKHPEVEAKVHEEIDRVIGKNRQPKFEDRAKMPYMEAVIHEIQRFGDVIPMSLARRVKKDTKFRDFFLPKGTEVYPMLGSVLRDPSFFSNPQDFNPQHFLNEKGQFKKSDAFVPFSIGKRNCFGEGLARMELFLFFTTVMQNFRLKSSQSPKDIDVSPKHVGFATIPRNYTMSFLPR
# [2] = target: T1, Cytochrome P450 2A6; experiment: Inhibition of CYP2A6 in human liver microsomes assessed as inhibition of coumarin 7-hydroxylation after 30 mins preincubation by plate reader
# [3] = target: T1, Cytochrome P450 2A6; experiment: Irreversible inhibition of CYP2A6 in human liver microsomes assessed as coumarin 7-hydroxylation activity in presence of NADPH; settings: TDE = time-dependent effect
# [4] = target: T1, Cytochrome P450 2A6; experiment: Irreversible inhibition of CYP2A6 in human liver microsomes assessed as coumarin 7-hydroxylation activity after 1 to 5 mins in presence of NADPH
# [5] = target: T2, CYP2A6 (Homo sapiens, UniProt P11509); experiment: (§1) Irreversible inhibition of CYP2A6 in human liver microsomes assessed as coumarin 7-hydroxylation activity by double reciprocal plot analysis in presence of NADPH; settings: human, liver microsomes, probe coumarin (7-hydroxylation)
# T2 sequence (P11509 whole entry): T1 sequence (P11509 whole entry)
# [6] = target: T1, Cytochrome P450 2A6; experiment: as §1
compound,measurement,setting,value
Brc1ccc2[nH]ccc2c1,IC50,[1],6.4 µM
N#Cc1c(Cl)cccc1OCC(F)(F)F,IC50,[1],> 100 µM
NCc1cc2ccccc2s1,IC50,[1],0.1 µM
Brc1cccc2[nH]ccc12,IC50,[1],> 100 µM
N#CCSc1nnc(N)s1,IC50,[1],> 100 µM
O=C(O)c1cc2ccccc2s1,IC50,[1],> 100 µM
NCc1ccc2sccc2c1,IC50,[1],1.7 µM
same,IC50,[2],600 nM
N#Cc1ccc(C=O)cc1,IC50,[1],> 100 µM
NCc1csc2ccccc12,IC50,[1],1.5 µM
same,IC50,[2],200 nM
O=Cc1ccc(-c2cccs2)cc1,IC50,[1],> 100 µM
O=Cc1csc2ccccc12,IC50,[1],1.6 µM
same,IC50,[2],50 nM
same,inhibition (INH),[3],tde
same,inhibition (INH),[4],Dose-dependent effect
same,kinact,[5],0.006 s⁻¹
same,Ki,[6],29 µM
